Assays:
[1] = Retention on reversed-phase C4 HPLC column as indication of tissue penetration; format: physicochemical; settings: ACE C4 150 × 4.6 mm, MeOH-H2O 10:90, 0.5 mL/min, 40 °C
Method: Under the given conditions, it was assumed that the stationary phase simulates the tissue while the aqueous mobile phase represents the surrounding space. […] The analysis was carried out under isocratic conditions with a flow rate of 0.5 mL/min and a mobile phase consisting of MeOH-H2O at 10:90 (v/v).

[2] = Franz diffusion cell in vitro permeability, hybrid IPM-cellulose membrane
Excerpt: (§1) There are many membranes available on the market that are grouped as cellulosic and polymeric. Taking into account those that are more convenient and economical, two synthetic membranes and their combinations were used. Synthetic PVDF (polyvinylidene difluoride) and cellulose acetate (Table S2) membranes were pre-treated according to the supplier’s instructions. Cellulose membranes were further treated to acquire their lipophilic properties. Thus, they were placed on a flat glass surface and completely coated with IPM (isopropyl myristate) solution. The cellulose membrane was allowed to incubate in the IPM solution for 30 min. After impregnation, the excess IPM solution was drained off, and the membrane was used for the in vitro experiments. To ensure that the procedure was carried out successfully, the cellulose membrane was weighed before and after pretreatment.
(§2) The in vitro permeability profile of each compound was evaluated using the Franz diffusion cell setup (PermeGear, Hellertown, PA, USA). Five distinct artificial membranes were placed between the donor (upper) and receiver (lower) chambers of cells, with an effective diffusion area of 4.9 cm^2 and a receptor volume of 20 mL; 1 mL of APIs solutions were placed in the donor compartment, which was sealed with Parafilm® to prevent any loss of moisture. The acceptor contained degassed PBS at pH 7.4. The procedure was performed under agitation at 90 rpm and at a temperature of 37 °C ± 0.2 °C.
(§3) At specified intervals (t = 2, 3, 4, 6, and 8 h), 0.5 mL of the samples was taken from the receptor compartment and replaced with an equal volume of freshly prewarmed receptor medium. The concentration of each API was quantified using the appropriate HPLC method (Section 4.1) without sample pretreatment. Blanks containing PBS were pretreated with the same procedure. Each sample was analyzed in triplicate, and its cumulative release over time was plotted (Figure 2). The steady-state flux (Jss) was determined by plotting the permeation of the API per unit area (μg/cm^2) against time (h) and calculating the slope of the linear portion of the resulting line. Equation (1) was applied to calculate the apparent permeability coefficient (cm/h) (Paap).

[3] = Franz diffusion cell in vitro permeability, cellulose membrane; settings: for Cumulative Amount Permeated, Cellulose (Hydrophilic): after 8 h, mean ± SD (n = 3); for Papp (experimental, in vitro): cellulose membrane, Table 6, compared with PLS prediction; for Papp at 8 h: pH 7.4; for permeation order of the substance, Cellulose (Hydrophilic): rank among the six drugs by cumulative amount after 8 h
Excerpt: as §1, §2, §3

[4] = Franz diffusion cell in vitro permeability, IPM-impregnated cellulose membrane; settings: for Cumulative Amount Permeated, Impregnated IPM: after 8 h, mean ± SD (n = 3); for Papp at 8 h: pH 7.4; for permeation order of the substance, Impregnated IPM: rank among the six drugs by cumulative amount after 8 h
Excerpt: as §1, §2, §3

[5] = Franz diffusion cell in vitro permeability, PVDF membrane; settings: for Cumulative Amount Permeated, PVDF (Hydrophobic): after 8 h, mean ± SD (n = 3); for Papp at 8 h: pH 7.4; for permeation order of the substance, PVDF (Hydrophobic): rank among the six drugs by cumulative amount after 8 h
Excerpt: as §1, §2, §3

[6] = cited from earlier work; for PSA: ref Pubchem [1]
[7] = Ex vivo permeability in Franz diffusion cell, cow vaginal tissue
Method: Ex vivo experiments were conducted on cow vaginal mucosa sourced from a local slaughterhouse. Tissues with an exposure area of 0.19 cm^2 were placed in a Franz diffusion cell with the epithelial mucosa side facing the donor compartment. In the donor compartment, 200 μL of API’s solution in VFS (pH 4.5) was added (37 °C ± 0.2 °C), while the acceptor was filled with 5 mL of PBS at pH 7.4 (constant stirring at 100 rpm).
Samples were centrifuged at 2000× g for 10 min, and supernatants were analyzed using HPLC as described in Section 4.1.
The procedure for extracting the drug from the tissue was as follows: after the experiment was completed, each tissue was carefully removed from the Franz cell and immersed in 5 mL of methanol. It was then sonicated for 30 min, followed by 10 min of vertexing, another 30 min in the sonicator, and 10 min of vertexing. Finally, the samples were centrifuged for 20 min at 5000× g, and the supernatant was collected for analysis.

[8] = cited from earlier work
[9] = Franz diffusion cell in vitro permeability, hybrid PVDF-cellulose membrane
Excerpt: as §1, §2
as §3, with “Blanks containing PBS were pretreated with the same procedure.” left out, “Equation (1) was applied to calculate the apparent permeability coefficient (cm/h) (Paap).” left out

[10] = rank among the six drugs by cumulative amount after 8 h

Row | Retention time (tr) in column C4 [1] [min] | diffusion profile in cellulose-IPM membrane [2] | Papp value / permeability / diffusion profile in cellulose membrane [3] | Cumulative Amount Permeated, Cellulose (Hydrophilic) [3] [μg/cm^2] | Papp (experimental, in vitro) [3] [×10⁻⁶ cm/s] | Papp at 8 h [3] [×10⁻⁶ cm/s] | permeation order of the substance, Cellulose (Hydrophilic) [3] | Cumulative Amount Permeated, Impregnated IPM [4] [μg/cm^2] | Papp at 8 h [4] [×10⁻⁶ cm/s] | permeation order of the substance, Impregnated IPM [4] | Cumulative Amount Permeated, PVDF (Hydrophobic) [5] [μg/cm^2] | Papp at 8 h [5] [×10⁻⁶ cm/s] | permeation order of the substance, PVDF (Hydrophobic) [5] | tissue permeability / diffusion profile in vaginal tissue, ex vivo [7] | Acceptor's Mass ([7]; cow, 8 h) | Final Mass Donor ([7]; cow, 8 h) | Tissue Extraction ([7]; cow, 8 h) | Structure (SMILES) | Tangible aqueous solubility (descriptive term) ([6]; ref European Pharmacopeia) | PSA [6] [Å2] | other results
1 | 9.94 | zero | negligible | 1.7 | 0.239 | 0.239 | 5th | 0.92 | 0.0389 | 4th | 15.3 | 0.0417 | 6th | zero | 0 mg | 0.2 (±0.01) mg | 0.01 (±0.001) mg | Clc1ccc(COC(Cn2ccnc2)c2ccc(Cl)cc2Cl)cc1 (stereo not shown) [ECO, econazole] | very slightly soluble | 27 | 
2 | 10.2 | zero | negligible and zero |  | 0 |  |  |  |  |  | 33.4 | 0.806 | 5th | zero | 0 mg | 0.26 (±0.02) mg | 0 mg | Clc1ccc(COC(Cn2ccnc2)c2ccc(Cl)cc2Cl)c(Cl)c1 (stereo not shown) [MICO, miconazole] | very slightly soluble | 27 | 

Continued, compound first:

Row | Structure (SMILES) | Retention time (tr) in column C4 [1] [min] | diffusion profile in cellulose-IPM membrane [2] | Papp value / permeability / diffusion profile in cellulose membrane [3] | Cumulative Amount Permeated, Cellulose (Hydrophilic) [3] [μg/cm^2] | Papp (experimental, in vitro) [3] [×10⁻⁶ cm/s] | Papp at 8 h [3] [×10⁻⁶ cm/s] | permeation order of the substance, Cellulose (Hydrophilic) [3] | Cumulative Amount Permeated, Impregnated IPM [4] [μg/cm^2] | Papp at 8 h [4] [×10⁻⁶ cm/s] | permeation order of the substance, Impregnated IPM [4] | Cumulative Amount Permeated, PVDF (Hydrophobic) [5] [μg/cm^2] | Papp at 8 h [5] [×10⁻⁶ cm/s] | permeation order of the substance, PVDF (Hydrophobic) [5] | tissue permeability / diffusion profile in vaginal tissue, ex vivo [7] | Acceptor's Mass ([7]; cow, 8 h) | Final Mass Donor ([7]; cow, 8 h) | Tissue Extraction ([7]; cow, 8 h) | Tangible aqueous solubility (descriptive term) ([6]; ref European Pharmacopeia) | PSA [6] [Å2] | other results
3 | O=[N+]([O-])OCC(CO[N+](=O)[O-])O[N+](=O)[O-] [nitroglycerin] |  |  |  |  |  |  |  |  |  |  |  |  |  |  |  |  |  |  |  | log P [8]: 1.6
4 | CCN(CC)CC(=O)Nc1c(C)cccc1C [LIDO, lidocaine] |  |  |  |  |  |  |  |  |  |  |  |  |  |  | 0.53 (±0.09) mg | 0.9 (±0.1) mg | 0.5 (±0.09) mg |  |  | 
5 | Cc1ncc([N+](=O)[O-])n1CCO [METRO, metronidazole] | 3.93 |  |  | 3976.4 | 6.39 | 6.39 | 1st | 2373.1 | 3.89 | 1st | 2008.4 | 2.5 | 1st |  | 0.65 (±0.08) mg | 0.01 (±0.001) mg | 1.4 (±0.2) mg | very soluble | 83.87 | Cumulative Amount Permeated, IPM-Cellulose ([2]; after 8 h, mean ± SD (n = 3)): 307.3 μg/cm^2; Papp at 8 h ([2]; pH 7.4): 0.556 ×10⁻⁶ cm/s; permeation order of the substance, IPM-Cellulose [2, 10]: 3rd; Cumulative Amount Permeated, PVDF-Cellulose ([9]; after 8 h, mean ± SD (n = 3)): 370.2 μg/cm^2; Papp at 8 h ([9]; pH 7.4): 1.11 ×10⁻⁶ cm/s; permeation order of the substance, PVDF-Cellulose [9, 10]: 3rd; Tangible aqueous solubility (value in brackets) ([6]; ref European Pharmacopeia): 5920 µg/mL; Papp at 8 h, 10 mg/mL ([7]; cow): 12.8 ×10⁻⁶ cm/s; Cumulative Amount Permeated, Tissue ([7]; cow, 8 h, 10 mg/mL): 3419.5 μg/cm^2; permeation order of the substance, Tissue ([7]; cow, 8 h, 10 mg/mL): 1st
6 | CCCCCCCCCc1ccc(OCCOCCOCCOCCOCCOCCOCCOCCOCCO)cc1 [NONO, nonoxynol-9] | 39.48 | zero | negligible | 20.1 | 0.0556 |  | 4th |  |  |  | 1752.2 |  | 2nd | does not penetrate the vaginal tissue at all and zero |  |  |  | miscible with H2O | 103.3 | Tissue Extraction ([7]; drug extracted from tissue with methanol after the experiment): 0.15 (±0.05) mg; Acceptor's Mass ([7]; ex vivo, end of experiment): 0 mg; Final Mass Donor ([7]; ex vivo, end of experiment, mean ± SD (n = 3)): 1.85 (±0.2) mg
